Converted amounts (≈) assume the structure as drawn. Where two headings read alike, the source gives them in different places.
Legend:
E. coli biofilm = E. coli biofilm assay (activity tables); format: cell-based, Escherichia coli
Experimental: A quantitative biofilm assay was used to determine the effect of NTZ on biofilm formation (41). Strain 042 was grown overnight at 37° C. with shaking and inoculated 1:100 in 200 μl culture medium in Costar 96-well, flat-bottom, polystyrene microtiter plates containing appropriate concentrations of NTZ. Plates were incubated statically at 37° C. in a humidified incubator. At 24 h, bacterial growth was measured by either transferring […] aliquots to another microtiter plate to determine turbidity or by diluting 100 μl aliquots 1:100 in 9.9 ml PBS for quantitative plate counts on LB medium. Bacterial counts in triplicate are reported as cfu/ml. Biofilm was visualized following staining with 0.5% crystal violet (41) and the absorbance was read at 570 nm using a microplate reader (Molecular Dynamics). All experiments were in triplicate and reported as mean and standard deviation.
(§1) A standard broth dilution protocol was used in 96 well microplates containing a standard dilution of the microorganism to be tested in 100 microliters of the appropriate medium. Appropriate medium: E. coli, LB medium; Staphylococcus strains, Trypticase Soy; and for H. pylori and C. jejuni, Brain Heart Infusion. The compounds to be tested were set at 32 μg/ml in 200 microliters in well one and then serially diluted to provide a range from 32 to 0.06. The wells were scored visually at 24 h. The well where there was no growth was recorded as the MIC. Clostridium difficile was tested by agar diffusion and disk diffusion (Kirby Bower) methods under anaerobic conditions on Wilkins Chalgrin agar. In these assays, zone of inhibited growth was measured and compared by relative ratio to the zone recorded for NTZ.
(§2) Representative compounds of the invention were tested in a series of assays against a series of organisms as described above. […] The organisms tested include, C. difficile, H. pylori, C. jejuni, MRSA, S. epidermidis, and E. coli. S. epidermidis and E. coli were tested in the plank and biofilm assay. A disk diffusion assay was also used for C. difficile. Direct PFOR enzyme assays were also performed. All analogues and derivatives were not tested on every organism in every type of assay (the “-” in each table means that it was not tested).

H. pylori = assay: MIC testing by broth dilution, H. pylori; format: cell-based, Helicobacter pylori
How it was run: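 Broth dilution MIC determination against H. pylori: a standard inoculum in 100 microliters of Brain Heart Infusion medium was placed in 96 well microplates. Test compounds began at 32 μg/ml in 200 microliters in well one and were serially diluted over a 32 to 0.06 range. After 24 h, plates were scored by eye and the first well without growth was recorded as the MIC.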

S. epidermidis biofilm = S. epidermidis biofilm assay (activity tables); format: cell-based, Staphylococcus epidermidis
Experimental: Staphylococcal strains were cultured overnight in TSB at 37° C. with shaking, diluted in fresh medium to an OD600 of 0.01 and 200 W was dispensed into sterile flat bottom polystyrene 96 well microtiter plates (Costar 3596, Corning Inc.). […] Each compound and dilution was tested in triplicate. The plates were incubated overnight at 37° C. in a humidified incubator, without shaking and both growth and biofilm accumulation were determined at 16 h.
Following recording of turbidities, the culture medium was aspirated and the wells were washed three times with distilled water, blotted on paper towels, and fixed with 75% ethanol for 10 minutes.
To visualize biofilm material, 0.5% crystal violet was added to each well and after 5 minutes was removed and the wells washed three times with distilled water. Plates were read using a microplate reader at a wavelength of 570 nm. The dye was then extracted by adding 200 W of 95% ethanol, and the absorbance was read again at 570 nm. All assays were performed in triplicate and the mean and standard deviation determined. […]
as §2

MRSA = assay: MIC testing by broth dilution, MRSA; format: cell-based, Staphylococcus aureus
How it was run: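 Values are broth-dilution MICs, defined as the well showing no growth on visual reading after 24 h; the tested range was 32 to 0.06 μg/ml, in organism-specific media (LB, Trypticase Soy, Brain Heart Infusion). The C. difficile entries come instead from anaerobic Kirby-Bauer disk zones, normalised to NTZ.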

S. epidermidis = assay: MIC testing by broth dilution, S. epidermidis plank; format: cell-based, Staphylococcus epidermidis
How it was run: (§3)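 Media: LB (E. coli), Trypticase Soy (S. epidermidis), BHI (C. jejuni); plank cells. C. difficile on Wilkins Chalgrin agar, anaerobic Kirby-Bauer disks, zone vs NTZ zone ratio.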

E. coli = assay: MIC testing by broth dilution, E. coli plank; format: cell-based, Escherichia coli
How it was run: as §3

C. jejuni = assay: MIC testing by broth dilution, C. jejuni; format: cell-based, Campylobacter jejuni
How it was run: as §3

C. difficile = assay: Disk diffusion (Kirby Bower), C. difficile; format: cell-based, Clostridium difficile; conditions: Nitazoxanide = 100
Experimental: as §1, §2

O=C(Nc1ncc([N+](=O)[O-])s1)c1ccc(-c2cccc(C(F)(F)F)c2)o1 [VPC161197]
MIC (E. coli biofilm; biofilm; Furan analogues table; read-out: MIC E. coli Biofilm): 90.8 µM (≈ 34.8 µg/mL)
MIC (H. pylori; Furan analogues table, read-out: MIC H. pylori): 1.1 µM (≈ 0.422 µg/mL)
MIC S. epidermidis Biofilm (S. epidermidis biofilm; Furan analogues table): 5.7 µM (≈ 2.18 µg/mL)
MIC (MRSA; Furan analogues table, read-out: MIC MRSA): 11.4 µM (≈ 4.37 µg/mL)
MIC (S. epidermidis; planktonic, Furan analogues table, read-out: MIC S. epidermidis Plank): 5.7 µM (≈ 2.18 µg/mL)
MIC (E. coli; planktonic, Furan analogues table, read-out: MIC E. coli Plank): 90.8 µM (≈ 34.8 µg/mL)
MIC (C. jejuni; Furan analogues table, read-out: MIC C. jejuni): 8.5 µM (≈ 3.26 µg/mL)

O=C(Nc1ccc(F)cc1)Nc1ncc([N+](=O)[O-])s1 [VPC161267]
MIC (E. coli biofilm; Escherichia coli; read-out: MIC (μM) E. coli Biofilm): 56.7 µM (≈ 16 µg/mL)
MIC (H. pylori; Helicobacter pylori, broth dilution, Brain Heart Infusion, 24 h, read-out: MIC (μM) H. pylori): 0.9 µM (≈ 0.254 µg/mL)
MIC (μM) S. epidermidis Biofilm (S. epidermidis biofilm): 28.3 µM (≈ 7.99 µg/mL)
MIC (MRSA; Staphylococcus aureus, MRSA, broth dilution, Trypticase Soy, 24 h, read-out: MIC (μM) MRSA): 56.7 µM (≈ 16 µg/mL)
MIC (S. epidermidis; Staphylococcus epidermidis, broth dilution, Trypticase Soy, 24 h, read-out: MIC (μM) S. epidermidis Plank): 28.3 µM (≈ 7.99 µg/mL)
MIC (E. coli; Escherichia coli, broth dilution, LB medium, 24 h, read-out: MIC (μM) E. coli Plank): 113 µM (≈ 32 µg/mL)
MIC (C. jejuni; Campylobacter jejuni, broth dilution, Brain Heart Infusion, 24 h, read-out: MIC (μM) C. jejuni): 21.3 µM (≈ 6.01 µg/mL)

O=C(CCCC(=O)Nc1ncc([N+](=O)[O-])s1)Nc1ncc([N+](=O)[O-])s1 [VPC161276, N^1,N^5-Bis(5-nitrothiazol-2-yl)glutaramide]
MIC (E. coli biofilm; Escherichia coli, read-out: MIC (μM) E. coli Biofilm): 82.8 µM (≈ 32 µg/mL)
MIC (H. pylori; Helicobacter pylori, 24 h, read-out: MIC (μM) H. pylori): 5.2 µM (≈ 2.01 µg/mL)
MIC (μM) S. epidermidis Biofilm (S. epidermidis biofilm): 1.3 µM (≈ 0.502 µg/mL)
MIC (MRSA; Staphylococcus aureus, MRSA, 24 h, read-out: MIC (μM) MRSA): 82.8 µM (≈ 32 µg/mL)
MIC (S. epidermidis; Staphylococcus epidermidis, 24 h, read-out: MIC (μM) S. epidermidis Plank): 82.8 µM (≈ 32 µg/mL)
MIC (E. coli; Escherichia coli, 24 h, read-out: MIC (μM) E. coli Plank): 82.8 µM (≈ 32 µg/mL)
MIC (C. jejuni; Campylobacter jejuni, 24 h, read-out: MIC (μM) C. jejuni): 31.1 µM (≈ 12 µg/mL)

Cc1ncc([N+](=O)[O-])n1CCOC(=O)CCCC(=O)Nc1ncc([N+](=O)[O-])s1 [VPC161277]
MIC (E. coli biofilm; biofilm; read-out: MIC (μM) E. coli Biofilm): 77.6 µM (≈ 32 µg/mL)
MIC (H. pylori; broth dilution, Brain Heart Infusion, 24 h, read-out: MIC (μM) H. pylori): 1.8 µM (≈ 0.742 µg/mL)
MIC (μM) S. epidermidis Biofilm (S. epidermidis biofilm): 2.4 µM (≈ 0.99 µg/mL)
MIC (MRSA; broth dilution, Trypticase Soy, 24 h, read-out: MIC (μM) MRSA): 77.6 µM (≈ 32 µg/mL)
MIC (S. epidermidis; broth dilution, Trypticase Soy, 24 h, read-out: MIC (μM) S. epidermidis Plank): 77.6 µM (≈ 32 µg/mL)
MIC (E. coli; broth dilution, LB medium, 24 h, read-out: MIC (μM) E. coli Plank): 77.6 µM (≈ 32 µg/mL)
MIC (C. jejuni; broth dilution, Brain Heart Infusion, 24 h, read-out: MIC (μM) C. jejuni): 29.1 µM (≈ 12 µg/mL)

O=C(Nc1ncc([N+](=O)[O-])s1)c1ncc([N+](=O)[O-])s1 [VPC161280]
MIC (E. coli biofilm; biofilm; Thiophene analogues table; read-out: MIC E. coli Biofilm): 3.3 µM (≈ 0.994 µg/mL)
MIC (H. pylori; Thiophene analogues table, read-out: MIC H. pylori): 6.6 µM (≈ 1.99 µg/mL)
MIC S. epidermidis Biofilm (S. epidermidis biofilm; Thiophene analogues table): 6.6 µM (≈ 1.99 µg/mL)
MIC (MRSA; Thiophene analogues table, read-out: MIC MRSA): 53.1 µM (≈ 16 µg/mL)
MIC (S. epidermidis; planktonic, Thiophene analogues table, read-out: MIC S. epidermidis Plank): 5.0 µM (≈ 1.51 µg/mL)
MIC (E. coli; planktonic, Thiophene analogues table, read-out: MIC E. coli Plank): 39.8 µM (≈ 12 µg/mL)
MIC (C. jejuni; Thiophene analogues table, read-out: MIC C. jejuni): 13.3 µM (≈ 4.01 µg/mL)

O=C(Nc1ncc([N+](=O)[O-])s1)c1ccc(Br)o1 [VPC161281, 5-Bromo-N-(5-nitrothiazol-2-yl)furan-2-carboxamide]
Disk Diff (%) C. difficile (C. difficile; Furan analogues table): 92%
MIC (E. coli biofilm; Escherichia coli; biofilm; Furan analogues table; read-out: MIC E. coli Biofilm): 0.4 µM (≈ 0.127 µg/mL)
MIC (H. pylori; Helicobacter pylori, Furan analogues table, read-out: MIC H. pylori): 1.6 µM (≈ 0.509 µg/mL)
MIC S. epidermidis Biofilm (S. epidermidis biofilm; Furan analogues table): 50.3 µM (≈ 16 µg/mL)
MIC (MRSA; Staphylococcus aureus, MRSA, Furan analogues table, read-out: MIC MRSA): 6.3 µM (≈ 2 µg/mL)
MIC (S. epidermidis; Staphylococcus epidermidis, planktonic, Furan analogues table, read-out: MIC S. epidermidis Plank): 25.1 µM (≈ 7.98 µg/mL)
MIC (E. coli; Escherichia coli, planktonic, Furan analogues table, read-out: MIC E. coli Plank): 101 µM (≈ 32 µg/mL)
MIC (C. jejuni; Campylobacter jejuni, Furan analogues table, read-out: MIC C. jejuni): 12.6 µM (≈ 4.01 µg/mL)

O=C(Nc1ncc([N+](=O)[O-])s1)c1ccc(Br)s1 [VPC161282, 5-Bromo-N-(5-nitrothiazol-2-yl)thiophene-2-carboxamide]
Disk Diff (%) C. difficile (C. difficile; Thiophene analogues table): 90%
MIC (E. coli biofilm; Escherichia coli; biofilm; Thiophene analogues table; read-out: MIC E. coli Biofilm): 0.1 µM (≈ 0.0334 µg/mL)
MIC (H. pylori; Helicobacter pylori, Thiophene analogues table, read-out: MIC H. pylori): 3 µM (≈ 1 µg/mL)
MIC S. epidermidis Biofilm (S. epidermidis biofilm; Thiophene analogues table): 47.9 µM (≈ 16 µg/mL)
MIC (MRSA; Staphylococcus aureus, MRSA, Thiophene analogues table, read-out: MIC MRSA): 4.5 µM (≈ 1.5 µg/mL)
MIC (S. epidermidis; Staphylococcus epidermidis, planktonic, Thiophene analogues table, read-out: MIC S. epidermidis Plank): 23.9 µM (≈ 7.99 µg/mL)
MIC (E. coli; Escherichia coli, planktonic, Thiophene analogues table, read-out: MIC E. coli Plank): 95.8 µM (≈ 32 µg/mL)
MIC (C. jejuni; Campylobacter jejuni, Thiophene analogues table, read-out: MIC C. jejuni): 9.9 µM (≈ 3.31 µg/mL)
